Measurements as given in publication PMC10846223, “Substrate specificity and ecological significance of PstS homologs in phosphorus uptake in marine Synechococcus sp. WH8102” (Microbiology Spectrum, 2024).

What was measured:
Assay in all cases: biochemical
[1] = target: T1, PstS2 (Parasynechococcus marenigrum, UniProt Q7U3C5)
T1 construct: gene SYNW2507
T1 sequence (Q7U3C5 24-336): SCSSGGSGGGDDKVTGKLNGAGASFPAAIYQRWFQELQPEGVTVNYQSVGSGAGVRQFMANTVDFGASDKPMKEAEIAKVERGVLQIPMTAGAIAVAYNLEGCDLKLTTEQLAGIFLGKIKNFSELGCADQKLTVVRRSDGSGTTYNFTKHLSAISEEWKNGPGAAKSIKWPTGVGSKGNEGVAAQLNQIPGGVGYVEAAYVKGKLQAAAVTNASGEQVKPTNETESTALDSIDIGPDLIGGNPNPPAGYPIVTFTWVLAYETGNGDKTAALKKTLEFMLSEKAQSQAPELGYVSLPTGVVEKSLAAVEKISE

[2] = target: T2, PstS1b (Parasynechococcus marenigrum, UniProt Q7U592)
T2 construct: gene SYNW1815
T2 sequence (Q7U592 26-325): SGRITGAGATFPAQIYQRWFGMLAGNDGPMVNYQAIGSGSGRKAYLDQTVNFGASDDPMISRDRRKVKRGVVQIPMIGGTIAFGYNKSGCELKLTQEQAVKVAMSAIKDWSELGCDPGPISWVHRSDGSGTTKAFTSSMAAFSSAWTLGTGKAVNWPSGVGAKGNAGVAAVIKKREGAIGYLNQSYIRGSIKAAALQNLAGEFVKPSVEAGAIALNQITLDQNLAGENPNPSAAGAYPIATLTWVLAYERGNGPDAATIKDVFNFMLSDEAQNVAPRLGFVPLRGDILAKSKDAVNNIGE

[3] = target: T3, PstS1a (Parasynechococcus marenigrum, UniProt Q7U7G6)
T3 construct: gene SYNW1018
T3 sequence (Q7U7G6 25-324): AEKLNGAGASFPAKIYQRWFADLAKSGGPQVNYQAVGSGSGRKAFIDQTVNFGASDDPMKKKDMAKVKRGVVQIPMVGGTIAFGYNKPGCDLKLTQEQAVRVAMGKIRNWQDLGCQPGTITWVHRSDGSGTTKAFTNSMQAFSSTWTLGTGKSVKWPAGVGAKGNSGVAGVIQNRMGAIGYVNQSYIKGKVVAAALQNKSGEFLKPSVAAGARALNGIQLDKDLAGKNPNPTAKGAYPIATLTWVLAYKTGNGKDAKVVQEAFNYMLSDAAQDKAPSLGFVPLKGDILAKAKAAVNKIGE

Kd [1]: 4.3 µM
Kd [2]: 0.44 µM
Kd [3]: 3.3 µM
SMILES: O=P(O)(O)O [phosphate]
